The values below come from EP0380897B1, “Pharmaceutical agents for female sterilization by way of intrauterine administration, and their therapeutical use” (priority 1989, dated 1990).

Like-named read-outs stand apart in the source and are kept apart here.

Series [1] concerns sujets. Conditions: cited from earlier work.
Series [2] concerns trompes humaines. Put plainly: Clinical follow-up of pregnancies after non-surgical female sterilization with intrauterine quinacrine tablets, alone or with an anti-inflammatory adjuvant. It counts as in vivo, femmes. The note with it: for taux de grossesse: quinacrine alone. The protocol: (§1) Ce symptôme est survenu chez 6 % des sujets dans les deux insertions ou seulement dans une seule. • b) un phénomène de fièvre de 38°C à 39,5°C apparaissant le surlendemain du jour d'insertion et durant de 1 à 4 jours, sans relation avec le mal de tête. Les deux symptômes sont corrélés chez seulement quelques sujets. La fièvre est apparue chez 5 % des cas (parfois lors de la première insertion et parfois lors de la seconde). Les autres complications ont été semblables à celles décrites dans l'article publié précédemment J. Zipper et al. Adv. in Contraception 3(1987)255. A la fin de l'année de suivi, le taux de grossesse a été de 3,0 pour 100 femmes et par an.
(§2) Un autre groupe utilisant la quinacrine seule a été constitué, qui a subi deux insertions intra-utérines avec des comprimés à 180 mg. Les insertions ont été séparées par un cycle menstruel - 190 sujets sont entrés dans cette étude. […] Chez un petit nombre de sujets seulement les deux symptômes ont été présents simultanément. La fièvre est apparue dans 3% des cas (pas nécessairement lors des deux insertions). Ce groupe a manifesté un taux de grossesse de 3 pour 100 femmes, et par an à la fin de la première année du suivi. Les deux groupes quinacrine (250 et 180 mg) ont été considéré comme des témoins pour les autres groupes qui ont reçu un anti-inflammatoire, un antipyrétique et des substances anti-prostagrandines.
(§3) 4 mg de Bétaméthasone et 4 mg de Dexaméthasone ont été employé dans des groupes distincts de sujets. • 1 - 4 mg de Betaméthasone intra-musculaire Ce groupe incluait 90 sujets - 4 mg de Bethaméthasone ont été injectés lorsque le comprimé de quinacrine à 250 mg a été inséré. Ce procédé a été utilisé à nouveau avec le second comprimé (comprimé à 250 mg ayant un temps de dissolution de 100 mn). […] Les sujets ont achevé une année de suivi et ont représenté 1220 mois. […] Ce groupe incluait 65 sujets. […] Ces sujets ont effectué au total 830 mois de suivi. […] Ceci nous a conduit à faire des investigations sur la potentialisation possible des effets occlusifs de la quinacrine chez le rat dû à la betaméthasone. Cette méthode expérimentale est celle décrite pour d'autres substances (ref. Agent pharmacologique qui potentialisent ou inhibent l'action occlusivante de la quinacrine, dans le tube du lapin et dans l'utérus de rat cf J. ZIPPER-S.INSUNSA Female Stérilization - pronostic pour des techniques simplifiées pour le sujet ambulatoire Ed Gordon, W. Duncan, R.D. Falb et J. Joseph SPEIDEL (p 131-137), NEW YORK Acad. Press 1972 compte-rendu). La Betamethasone s'est révélée être active chez le rat, avec des solutions de l'ordre de 005 mg/ml. La base physiologique de cette action n'a pas été déterminée et aucun rapport à ce sujet n'a été publié (cf histologie de l'utérus de rat sous l'influence de 50 mg/ml de quinacrine + 0, 05 mg /ml Betamethasone Figure 1).
Ce groupe inclue 80 sujets. Lorque le comprimé de 250 mg est inséré, 4 mg de Dexamethatone sont injectés par voie intramusculaire. La méthode est réputée avec un second comprimé. […] Les sujets ont achevé 950 mois de suivi.
L'insertion est effectuée après que les comprimé aient été insérés. Ce groupe inclût 60 sujets. […] Ce groupe avait 850 mois de suivi.
La bétaméthasone et la Dexamethasone sont des stéroïdes ayant une activité puissante antiphlogistique, anti-inflammatoire et anti-oedemateuse au niveau cérébral et sont des adjuvants importants pour réduire les effets secondaires indésirables de la quinacrine lorsque cette substance est employée pour provoquer l'occlusion la région intra-murale des trompes humaines afin de réaliser une stérilisation pharmacologique. En outre, un mécanisme d'action qui n'est pas clair, semble renforcer l'action d'occlusion de la quinacrine à ce niveau. Le nombre total de sujets a été de 295 et a représenté 3850 mois/femmes d'observation. Seulement une grossesse a été détectée. […]

Series [3] has as its system femmes. As to the kind of experiment: Clinical follow-up of side effects (fever, headache) after intrauterine insertion of quinacrine tablets, alone or with an anti-inflammatory adjuvant. It counts as in vivo. The protocol:
as §1
as §2, with “anti-prostagrandines. […]” for “anti-prostagrandines.”
• 1 - Diclofenac sel de sodium - Cet important agent anti-inflammatoire et inhibiteur de synthèse de prostaglandine a été appliqué en une dose unique intramusculaire de 75 mg, lorsque le comprimé de quinacrine à 180 mg a été inséré. Deux insertions par sujet ont été effectuées, séparées par un cycle menstruel - 78 sujets ont été traités - 702 mois de suivi. […] Ce procédé a été utilisé à nouveau avec le second comprimé séparé par un cycle menstruel. […] Ce groupe incluait 85 sujets. Les sujets ont achevé 1190 mois de suivi. […] Cet agent antipyrétique anti-inflammatoire a été appliqué en une dose unique intramusculaire de 2 g lorsque le pellet de quinacrine à 180 mg (temps de dissolution 10 minutes) a été inséré. Deux insertions, séparées par un cycle mentruel ont été effectuées - 76 sujets ont été traités, 1064 mois de suivi. […] D'autres agents anti-inflammatoires , antiprostaglandine non stéroidiens comme le Piroxicam, Indomethacine, Ibuprogene, Naproxen ou d'autres peuvent être utilisés. La recherche avec quelques uns de ces agents est en développement. De même, la recherche avec les inhibiteurs de synthèse de prostaglandines appliqués par voie intrautérine ou intramusculaire une seule fois est en développement.

The subject of series [4] is utérus de rat. As to the kind of experiment: Potentiation of the occlusive effect of quinacrine in the rat uterus. The note with it: solutions of the order of 005 mg/ml (Figure 1: 50 mg/ml quinacrine + 0, 05 mg /ml). The series is classed as in vivo. The protocol: as §3, with “La base physiologique de cette action n'a pas été déterminée et aucun rapport à ce sujet n'a été publié (cf histologie de l'utérus de rat sous l'influence de 50 mg/ml de quinacrine + 0, 05 mg /ml Betamethasone Figure 1).” left out

[5] abbreviates: share of subjects after the first insertion of quinacrine (250 mg).
[6] abbreviates: share of subjects after the third insertion of quinacrine (250 mg).
Setting [7] is: 50 mg tablets by the 'intra-urétine' route simultaneously with quinacrine tablets (180 mg, dissolution time 10 min), two insertions, 85 subjects, first seven days.
Where [8] appears, read: single 75 mg intramuscular dose at each of two insertions of 180 mg quinacrine tablet, 78 subjects, first week.

For the compound `CCN(CC)CCCC(C)Nc1c2ccc(Cl)cc2nc2ccc(OC)cc12` (stereo not shown) [quinacrine], the results for the fièvre in series [1] (setting [5]) and in series [1] (setting [6]) were 10% and 2%, respectively. Moreover, the entries for the “maux de tête” value in series [1] (setting [5]) and in series [1] (setting [6]) were 9% and 10,2%, respectively. Moreover, the taux de grossesse is reported as 3,0 pour 100 femmes et par an in series [2] (two insertions of 250 mg tablets, 209 subjects, 2544 months, end of the year of follow-up) and 3 pour 100 femmes, et par an in series [2] (two intrauterine insertions of 180 mg tablets, 190 subjects, end of first year of follow-up).
For `O=C(O)Cc1ccccc1Nc1c(Cl)cccc1Cl` [Diclofenac sel de sodium], the fièvre result in series [3] (setting [7]) and in series [3] (setting [8]) was “ni fièvre” in each case. For the same compound, the “maux de tête” value in series [3] (setting [7]) is “ni maux de tête”. Further, the “mal de tête” value in series [3] (setting [8]) is listed as “ni mal de tête”. Also, the grossesse entry in series [2] (50 mg tablets by the 'intra-urétine' route simultaneously with quinacrine tablets (180 mg, dissolution time 10 min), 85 subjects, 1190 months of follow-up) is listed as “Aucune grossesse n'a été détectée”; in series [2] (single 75 mg intramuscular dose at each of two insertions of 180 mg quinacrine tablet, 78 subjects, 702 months of follow-up), “aucune grossesse n'a été détectée”.
With `C[C@H]1C[C@H]2[C@@H]3CCC4=CC(=O)C=C[C@]4(C)[C@@]3(F)[C@@H](O)C[C@]2(C)[C@@]1(O)C(=O)CO` [Betaméthasone], in series [4], the “potentialisation des effets occlusifs de la quinacrine” value is “active”. The grossesse entry in series [2] (4 mg intramuscular at each of two insertions of 250 mg quinacrine tablet, 90 subjects, 1220 months of follow-up, pregnancy in sixth month) was “Seulement une grossesse normotopique a été détectée”; in series [2] (4 mg intrauterine (solution in 1 ml) simultaneously with quinacrine tablet, 65 subjects, 830 months of follow-up), “Aucune grossesse n'a été signalée”.
For the compound `Cc1c(N(C)CS(=O)(=O)O)c(=O)n(-c2ccccc2)n1C` [Dipyrone, metamizol sel de sodium], in series [2] (single 2 g intramuscular dose at each of two insertions of 180 mg quinacrine pellet (dissolution time 10 min), 76 subjects, 1064 months of follow-up), the grossesse result is “aucune grossesse n'a été détectée”.
